In ChEMBL document CHEMBL5260833, “An overview of quinazolines: Pharmacological significance and recent developments” (Eur J Med Chem, 2018):

Tests used:
Fusarium graminearum = assay: Antifungal activity against Gibberella zeae assessed as bacterial growth inhibition at 50 ug/ml incubated for 5 days relative to control; assay type: functional; conditions: 120 h, time 5 day
Cytospora mali = assay: Antifungal activity against Valsa mali assessed as bacterial growth inhibition at 50 ug/ml incubated for 5 days relative to control; assay type: functional; conditions: 120 h, time 5 day
Fusarium oxysporum = assay: Antifungal activity against Fusarium oxysporum assessed as bacterial growth inhibition at 50 ug/ml incubated for 5 days relative to control; assay type: functional; conditions: 120 h, time 5 day
Rattus norvegicus [1] = assay: Inhibition of AII induced rat assessed as vasoconstrictor at 15 mg/kg, iv; assay type: functional
[2] = molecular target: T1, Type-1 angiotensin II receptor A (Rattus norvegicus, UniProt P25095); assay: Inhibition of rat adrenal cortex angiotensin II; assay type: tissue-based
T1 sequence (P25095 whole entry): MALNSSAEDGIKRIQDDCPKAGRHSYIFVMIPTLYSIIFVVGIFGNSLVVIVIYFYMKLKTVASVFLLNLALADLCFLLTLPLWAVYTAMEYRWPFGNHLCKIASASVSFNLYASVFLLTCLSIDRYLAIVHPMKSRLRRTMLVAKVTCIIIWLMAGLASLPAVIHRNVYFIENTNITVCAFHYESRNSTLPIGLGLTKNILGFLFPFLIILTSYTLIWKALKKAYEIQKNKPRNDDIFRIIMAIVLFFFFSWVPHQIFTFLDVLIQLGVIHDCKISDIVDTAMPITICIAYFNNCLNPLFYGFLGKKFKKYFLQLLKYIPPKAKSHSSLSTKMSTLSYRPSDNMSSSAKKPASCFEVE

[3] = molecular target: T2, Type-2 angiotensin II receptor (Rattus norvegicus, UniProt P35351); assay: Binding affinity to AT2 in rat brain; assay type: tissue-based
T2 sequence (P35351 whole entry): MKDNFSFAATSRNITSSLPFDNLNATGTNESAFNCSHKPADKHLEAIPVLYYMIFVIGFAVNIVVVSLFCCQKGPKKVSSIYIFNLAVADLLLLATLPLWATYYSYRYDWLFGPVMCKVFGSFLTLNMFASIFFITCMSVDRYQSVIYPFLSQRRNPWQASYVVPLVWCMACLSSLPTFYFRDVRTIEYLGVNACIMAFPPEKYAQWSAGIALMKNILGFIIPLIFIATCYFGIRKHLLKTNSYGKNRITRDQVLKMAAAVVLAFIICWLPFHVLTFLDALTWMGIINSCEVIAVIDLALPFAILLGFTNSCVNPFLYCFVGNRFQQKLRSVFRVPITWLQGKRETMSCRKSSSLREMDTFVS

Rattus norvegicus [4] = assay: Inhibition of AII induced mean arterial blood pressure in rat assessed as vasoconstrictor at 5 mg/kg, po; assay type: functional
Rattus norvegicus [5] = assay: Inhibition of AII induced mean arterial blood pressure in rat assessed as vasoconstrictor at 1 mg/kg, po; assay type: functional

## C=CCn1cnc2ccc(F)cc2c1=O
Fusarium graminearum
  inhibition at 50 µg/mL: 5.5%
Cytospora mali
  inhibition at 50 µg/mL: 0.9%
Fusarium oxysporum
  inhibition at 50 µg/mL: 4.9%

## CCn1cnc2ccc(F)cc2c1=O
Fusarium graminearum
  inhibition at 50 µg/mL: 5.5%
Cytospora mali
  inhibition at 50 µg/mL: 0.9%
Fusarium oxysporum
  inhibition at 50 µg/mL: 4.9%

## CCCC1Nc2ccc(C(C)C)cc2C(=O)N1Cc1ccc(-c2ccccc2-c2nn[nH]n2)cc1 (configuration not stated)
Rattus norvegicus [1]
  inhibition in vivo at 15 mg/kg: 88%
[2]
  IC50: 50 nM

## CCCCC(CCCC)C1Nc2ccccc2C(=O)N1Cc1ccc(-c2ccccc2-c2nnn[nH]2)cc1 (configuration not stated)
Rattus norvegicus [1]
  inhibition in vivo at 15 mg/kg: 88%
[2]
  IC50: 12000 nM

## CCc1nc2ccc(N(Cc3ccccc3)C(=O)c3cccs3)cc2c(=O)n1Cc1ccc(-c2ccccc2-c2nn[nH]n2)cc1
[3]
  IC50: 0.22 nM

## CCCC1N(Cc2ccc(-c3ccccc3-c3nn[nH]n3)cc2)C(=O)c2ccccc2N1C (configuration not stated)
Rattus norvegicus [1]
  inhibition in vivo at 15 mg/kg: 88%
[2]
  IC50: 540 nM

## CCn1cnc2ccc(Br)cc2c1=O
Fusarium graminearum
  inhibition at 50 µg/mL: 5.5%
Cytospora mali
  inhibition at 50 µg/mL: 0.9%
Fusarium oxysporum
  inhibition at 50 µg/mL: 4.9%

## CCCC1Nc2ccccc2C(=O)N1Cc1ccc(-c2ccccc2-c2nn[nH]n2)cc1 (configuration not stated)
Rattus norvegicus [1]
  inhibition in vivo at 15 mg/kg: 88%
[2]
  IC50: 540 nM

## Cc1cc(O)no1 [HYMEXAZOL]
Fusarium graminearum
  inhibition at 50 µg/mL: 50.4%
Cytospora mali
  inhibition at 50 µg/mL: 22.5%
Fusarium oxysporum
  inhibition at 50 µg/mL: 55.4%

## CCCCc1nc2ccc(C(O)C(C)(C)C)cc2c(=O)n1Cc1ccc(-c2ccccc2-c2nn[nH]n2)cc1 (configuration not stated)
Rattus norvegicus [4]
  Activity: 65 mmHg
[2]
  IC50: > 1000 nM

## CCCCc1nc2ccc(C(C)OC)cc2c(=O)n1Cc1ccc(-c2ccccc2-c2nn[nH]n2)cc1 (configuration not stated)
Rattus norvegicus [4]
  Activity: 65 mmHg
[2]
  IC50: 18 nM

## CCCn1cnc2ccc(Cl)cc2c1=O
Fusarium graminearum
  inhibition at 50 µg/mL: 5.5%
Cytospora mali
  inhibition at 50 µg/mL: 40.9%
Fusarium oxysporum
  inhibition at 50 µg/mL: 4.9%

## CC(C)c1nc2ccc(N(Cc3ccccc3)C(=O)c3ccccc3)cc2c(=O)n1Cc1ccc(-c2ccccc2-c2nnn[nH]2)cc1
[3]
  IC50: 0.22 nM

## CCCCCN(C(=O)c1ccccc1)c1ccc2nc(CCC)n(Cc3ccc(-c4ccccc4-c4nn[nH]n4)cc3)c(=O)c2c1
[3]
  IC50: 1 nM

## Cc1nc2ccc(N(Cc3ccccc3)C(=O)c3ccccc3)cc2c(=O)n1Cc1ccc(-c2ccccc2-c2nnn[nH]2)cc1
[3]
  IC50: 0.22 nM

## CC(C)c1nc2ccc(N(Cc3ccccc3)C(=O)c3cccs3)cc2c(=O)n1Cc1ccc(-c2ccccc2-c2nnn[nH]2)cc1
[3]
  IC50: 0.22 nM

## CCCCC1Nc2ccccc2C(=O)N1Cc1ccc(-c2ccccc2-c2nn[nH]n2)cc1 (configuration not stated)
Rattus norvegicus [1]
  inhibition in vivo at 15 mg/kg: 88%
[2]
  IC50: 14000 nM

## CCCCc1nc2ccc([C@@]3(C(=O)O)C[C@H]4CCCN4O3)cc2c(=O)n1Cc1ccc(-c2ccccc2-c2nnn[nH]2)cc1
Rattus norvegicus [5]
  Activity: 55 mmHg

## CCCCc1nc2ccc(C(OC)c3ccccc3)cc2c(=O)n1Cc1ccc(-c2ccccc2-c2nn[nH]n2)cc1 (configuration not stated)
Rattus norvegicus [4]
  Activity: 65 mmHg
[2]
  IC50: > 1000 nM

## CCCCc1nc2ccc([C@]3(C)C[C@H]4CCCCN4O3)cc2c(=O)n1Cc1ccc(-c2ccccc2-c2nn[nH]n2)cc1
Rattus norvegicus [5]
  Activity: 55 mmHg

## C=CCn1cnc2ccc(Cl)cc2c1=O
Fusarium graminearum
  inhibition at 50 µg/mL: 5.5%
Cytospora mali
  inhibition at 50 µg/mL: 28.3%
Fusarium oxysporum
  inhibition at 50 µg/mL: 4.9%

## CCn1cnc2ccccc2c1=O
Fusarium graminearum
  inhibition at 50 µg/mL: 5.5%
Cytospora mali
  inhibition at 50 µg/mL: 0.9%
Fusarium oxysporum
  inhibition at 50 µg/mL: 4.9%

## CCC1Nc2ccc(C(C)C)cc2C(=O)N1Cc1ccc(-c2ccccc2-c2nn[nH]n2)cc1 (configuration not stated)
Rattus norvegicus [1]
  inhibition in vivo at 15 mg/kg: 88%
[2]
  IC50: 90 nM

## CCC1Nc2ccccc2C(=O)N1Cc1ccc(-c2ccccc2-c2nn[nH]n2)cc1 (configuration not stated)
Rattus norvegicus [1]
  inhibition in vivo at 15 mg/kg: 88%
[2]
  IC50: 45000 nM

## CCCn1cnc2ccc(Br)cc2c1=O
Fusarium graminearum
  inhibition at 50 µg/mL: 55%
Cytospora mali
  inhibition at 50 µg/mL: 0.9%
Fusarium oxysporum
  inhibition at 50 µg/mL: 47.2%

## CCC1Nc2ccc(C)cc2C(=O)N1Cc1ccc(-c2ccccc2-c2nn[nH]n2)cc1 (configuration not stated)
Rattus norvegicus [1]
  inhibition in vivo at 15 mg/kg: 88%
[2]
  IC50: 13000 nM

## Cc1nc2ccc(N(Cc3ccccc3Cl)C(=O)c3ccccc3)cc2c(=O)n1Cc1ccc(-c2ccccc2-c2nn[nH]n2)cc1
[3]
  IC50: 0.06 nM

## CCCCc1nc2ccc([C@@]3(C)C[C@H]4CC[C@H](C)N4O3)cc2c(=O)n1Cc1ccc(-c2ccccc2-c2nnn[nH]2)cc1
Rattus norvegicus [5]
  Activity: 55 mmHg

## CCCCc1nc2ccc([C@@]3(c4ccccc4)C[C@H]4CCCN4O3)cc2c(=O)n1Cc1ccc(-c2ccccc2-c2nnn[nH]2)cc1
Rattus norvegicus [5]
  Activity: 55 mmHg

## CCCn1cnc2ccc(F)cc2c1=O
Fusarium graminearum
  inhibition at 50 µg/mL: 5.5%
Cytospora mali
  inhibition at 50 µg/mL: 0.9%
Fusarium oxysporum
  inhibition at 50 µg/mL: 4.9%

## C=CCn1cnc2ccc(Br)cc2c1=O
Fusarium graminearum
  inhibition at 50 µg/mL: 5.5%
Cytospora mali
  inhibition at 50 µg/mL: 30.4%
Fusarium oxysporum
  inhibition at 50 µg/mL: 4.9%

## CCCCc1nc2ccc([C@@]3(CO)C[C@H]4CCCN4O3)cc2c(=O)n1Cc1ccc(-c2ccccc2-c2nnn[nH]2)cc1
Rattus norvegicus [5]
  Activity: 55 mmHg

## CCc1nc2ccc(N(Cc3ccccc3Cl)C(=O)c3ccccc3)cc2c(=O)n1Cc1ccc(-c2ccccc2-c2nn[nH]n2)cc1
[3]
  IC50: 0.22 nM

## CCCCC1Nc2ccc(C(C)C)cc2C(=O)N1Cc1ccc(-c2ccccc2-c2nn[nH]n2)cc1 (configuration not stated)
Rattus norvegicus [1]
  inhibition in vivo at 15 mg/kg: 88%
[2]
  IC50: 1100 nM

## CCCCc1nc2ccc([C@@]3(C(=O)N(C)C)C[C@H]4CCCN4O3)cc2c(=O)n1Cc1ccc(-c2ccccc2-c2nnn[nH]2)cc1
Rattus norvegicus [5]
  Activity: 55 mmHg

## CCc1nc2ccc(N(CC=C(C)C)C(=O)c3ccccc3)cc2c(=O)n1Cc1ccc(-c2ccccc2-c2nn[nH]n2)cc1
[3]
  IC50: 0.46 nM

## CCCCc1nc2ccc(C(C)NC(C)=O)cc2c(=O)n1Cc1ccc(-c2ccccc2-c2nn[nH]n2)cc1 (configuration not stated)
Rattus norvegicus [4]
  Activity: 65 mmHg
[2]
  IC50: > 1000 nM

## CCCc1nc2ccc(N(Cc3ccccc3)C(=O)OC(C)(C)C)cc2c(=O)n1Cc1ccc(-c2ccccc2-c2nnn[nH]2)cc1
[3]
  IC50: 0.46 nM

## CCCCc1nc2ccc(C(C)(C)OC)cc2c(=O)n1Cc1ccc(-c2ccccc2-c2nn[nH]n2)cc1 [CL-329167]
Rattus norvegicus [4]
  Activity: 65 mmHg
[2]
  IC50: 18 nM

## CCCCC1N(Cc2ccc(-c3ccccc3-c3nn[nH]n3)cc2)C(=O)c2ccccc2N1C (configuration not stated)
Rattus norvegicus [1]
  inhibition in vivo at 15 mg/kg: 88%
[2]
  IC50: 14000 nM

## CCCCc1nc2ccc(COC)cc2c(=O)n1Cc1ccc(-c2ccccc2-c2nn[nH]n2)cc1
Rattus norvegicus [4]
  Activity: 65 mmHg
[2]
  IC50: > 1000 nM

## CCCCc1nc2ccc(C(CC)OC)cc2c(=O)n1Cc1ccc(-c2ccccc2-c2nn[nH]n2)cc1 (configuration not stated)
Rattus norvegicus [4]
  Activity: 65 mmHg
[2]
  IC50: 18 nM

## CCCn1cnc2ccccc2c1=O
Fusarium graminearum
  inhibition at 50 µg/mL: 5.5%
Cytospora mali
  inhibition at 50 µg/mL: 0.9%
Fusarium oxysporum
  inhibition at 50 µg/mL: 4.9%

## CCn1cnc2ccc(Cl)cc2c1=O
Fusarium graminearum
  inhibition at 50 µg/mL: 5.5%
Cytospora mali
  inhibition at 50 µg/mL: 0.9%
Fusarium oxysporum
  inhibition at 50 µg/mL: 4.9%

## CCCCc1nc2ccc([C@@]3(C(=O)N4CCCC4)C[C@H]4CCCN4O3)cc2c(=O)n1Cc1ccc(-c2ccccc2-c2nnn[nH]2)cc1
Rattus norvegicus [5]
  Activity: 55 mmHg

## CCCCc1nc2ccc(C(C)(C)O)cc2c(=O)n1Cc1ccc(-c2ccccc2-c2nn[nH]n2)cc1
Rattus norvegicus [4]
  Activity: 65 mmHg
[2]
  IC50: 5 nM

## CCCCc1nc2ccc(C(O)CO)cc2c(=O)n1Cc1ccc(-c2ccccc2-c2nn[nH]n2)cc1 (configuration not stated)
Rattus norvegicus [4]
  Activity: 65 mmHg
[2]
  IC50: > 1000 nM

## CCCCc1nc2ccc([C@H]3C[C@H]4CCCCN4O3)cc2c(=O)n1Cc1ccc(-c2ccccc2-c2nnn[nH]2)cc1
Rattus norvegicus [5]
  Activity: 55 mmHg

## C=CCn1cnc2ccccc2c1=O
Fusarium graminearum
  inhibition at 50 µg/mL: 5.5%
Cytospora mali
  inhibition at 50 µg/mL: 0.9%
Fusarium oxysporum
  inhibition at 50 µg/mL: 4.9%

## CCCCc1nc2ccc(C(C)O)cc2c(=O)n1Cc1ccc(-c2ccccc2-c2nn[nH]n2)cc1 (configuration not stated)
Rattus norvegicus [4]
  Activity: 65 mmHg
[2]
  IC50: 5 nM

## CCc1nc2ccc(N(Cc3ccccc3)C(=O)c3ccncc3)cc2c(=O)n1Cc1ccc(-c2ccccc2-c2nn[nH]n2)cc1
[3]
  IC50: 0.22 nM
